Assay results taken from PMC6735358, “Synthesis and bioevaluation of novel steroidal isatin conjugates derived from epiandrosterone/androsterone” (Journal of Enzyme Inhibition and Medicinal Chemistry, 2019).

Legend:
in vitro = conditions: human
Method: (§1) Assays were performed in triplicate on three independent experiments.

[1] = system: SGC-7901, A875 and HepG2 cell lines; assay: MTT in vitro cytotoxicity, tested cancer cell lines together; format: cell-based, human; conditions: for dose-response of cell growth inhibition: SGC-7901, A875 and HepG2, Figure 4; for IC50: Homo sapiens, span over SGC-7901, A875, HepG2, read-out: range of IC50 value over the tested cancer cell lines
Method: as §1

[2] = system: A875 (Human melanoma cell line); assay: MTT in vitro cytotoxicity, A875; conditions: A875, 72 h, read-out: In vitro cytotoxicity IC50
Method: (§2) After removal of the growth medium, six serial dilutions of each tested compound in 200 µL test medium were added. Plates were incubated at 37 °C in a humidified atmosphere containing 5% CO2. After 72 h of exposure, the culture medium was removed and 30 µL of the MTT solution (5 mg/mL in PBS) was added to each well. The plate was further incubated for 4 h to allow MTT formazan formation. To dissolve the resulting MTT formazan, 50 µL of DMSO was added to each well, followed by thorough mixing with a microplate shaker. Absorbance at 570 nm was measured on a microplate reader (Thermo Scientific, MK3). […] Assays were performed in triplicate on three independent experiments.

[3] = system: HepG2 (Human hepatocellular liver carcinoma cell line); assay: MTT in vitro cytotoxicity, HepG2; conditions: HepG2, 72 h, read-out: In vitro cytotoxicity IC50
Method: as §2

[4] = system: SGC-7901 (Human gastric cancer cell line); assay: MTT in vitro cytotoxicity, SGC-7901; conditions: SGC-7901, 72 h, read-out: In vitro cytotoxicity IC50
Method: as §2

C[C@]12CC[C@H](O)CC1CC[C@@H]1[C@@H]2CC[C@]2(C)C(=NN=C3C(=O)Nc4ccc(Cl)cc43)CC[C@@H]12 (stereo partly drawn) [3c, 5-Chloro-3-(((3S,8R,9S,10S,13S,14S)-3-hydroxy-10,13-dimethyldodecahydro-1H-cyclopenta[a]phenanthren-17(2H,10H,14H)-ylidene)hydrazono)indolin-2-one]
IC50 (in vitro): 5.01 ± 1.37 µM | dose-response of cell growth inhibition [1]: dose-dependent manner | IC50 [2]: 7.92 ± 1.95 µM | IC50 [3]: 2.39 ± 0.36 µM | IC50 [4]: 4.92 ± 1.13 µM

C[C@]12CC[C@@H](O)C[C@@H]1CC[C@@H]1[C@@H]2CC[C@]2(C)C(=O)CC[C@@H]12 [Androsterone]
IC50 (in vitro): > 100 µM | IC50 [2]: > 100 µM | IC50 [3]: > 100 µM | IC50 [4]: > 100 µM

C[C@]12CC[C@@H](O)C[C@@H]1CC[C@@H]1[C@@H]2CC[C@]2(C)C(=NN=C3C(=O)Nc4ccc(I)cc43)CC[C@@H]12 [6e, 3-(((3R,5S,8R,9S,10S,13S,14S)-3-Hydroxy-10,13-dimethyldodecahydro-1H-cyclopenta[a]phenanthren-17(2H,10H,14H)-ylidene)hydrazono)-5-iodoindolin-2-one]
IC50 (in vitro): 18.5 ± 1 µM | IC50 [1]: 8 to 20 µM | IC50 [2]: 19.7 ± 1.89 µM | IC50 [3]: 8.99 ± 3.13 µM | IC50 [4]: 17.1 ± 3.68 µM

C[C@]12CC[C@@H](O)C[C@@H]1CC[C@@H]1[C@@H]2CC[C@]2(C)C(=NN=C3C(=O)Nc4ccc(Cl)cc43)CC[C@@H]12 [6c, 5-Chloro-3-(((3R,5S,8R,9S,10S,13S,14S)-3-hydroxy-10,13-dimethyldodecahydro-1H-cyclopenta[a]phenanthren-17(2H,10H,14H)-ylidene)hydrazono)indolin-2-one]
IC50 (in vitro): 6.36 ± 1.37 µM | dose-response of cell growth inhibition [1]: dose-dependent manner | IC50 [2]: 8.78 ± 0.64 µM | IC50 [3]: 4.84 ± 1.05 µM | IC50 [4]: 6.83 ± 2.01 µM

C[C@]12CC[C@@H](O)C[C@@H]1CC[C@@H]1[C@@H]2CC[C@]2(C)C(=NN=C3C(=O)Nc4ccc([N+](=O)[O-])cc43)CC[C@@H]12 [6g, 3-(((3R,5S,8R,9S,10S,13S,14S)-3-Hydroxy-10,13-dimethyldodecahydro-1H-cyclopenta[a]phenanthren-17(2H,10H,14H)-ylidene)hydrazono)-5-nitroindolin-2-one]
IC50 (in vitro): 11.2 ± 3.05 µM | IC50 [1]: 3.85 to 6.4 µM | dose-response of cell growth inhibition [1]: dose-dependent manner | IC50 [2]: 3.85 ± 1.44 µM | IC50 [3]: 4.31 ± 0.92 µM | IC50 [4]: 6.4 ± 1.74 µM

C[C@]12CC[C@H](O)C[C@@H]1CC[C@@H]1[C@@H]2CC[C@]2(C)C(=O)CC[C@@H]12 [Epiandrosterone]
IC50 (in vitro): 91.2 ± 12.3 µM | IC50 [2]: 63.6 ± 13.2 µM | IC50 [3]: 36.7 ± 10.6 µM | IC50 [4]: 69.8 ± 8.47 µM

C[C@]12CC[C@@H](O)C[C@@H]1CC[C@@H]1[C@@H]2CC[C@]2(C)C(=NN=C3C(=O)Nc4ccc(Br)cc43)CC[C@@H]12 [6d, 5-Bromo-3-(((3R,5S,8R,9S,10S,13S,14S)-3-hydroxy-10,13-dimethyldodecahydro-1H-cyclopenta[a]phenanthren-17(2H,10H,14H)-ylidene)hydrazono)indolin-2-one]
IC50 (in vitro): 4.4 ± 0.68 µM | IC50 [2]: 8.08 ± 0.51 µM | IC50 [3]: 6.1 ± 2.09 µM | IC50 [4]: 7.14 ± 1.41 µM

C[C@]12CC[C@H](O)CC1CC[C@@H]1[C@@H]2CC[C@]2(C)C(=NN=C3C(=O)Nc4ccc(F)cc43)CC[C@@H]12 (stereo partly drawn) [3b, 5-Fluoro-3-(((3S,8R,9S,10S,13S,14S)-3-hydroxy-10,13-dimethyldodecahydro-1H-cyclopenta[a]phenanthren-17(2H,10H,14H)-ylidene)hydrazono)indolin-2-one]
IC50 (in vitro): 5.49 ± 1.33 µM | dose-response of cell growth inhibition [1]: dose-dependent manner | IC50 [2]: 8.58 ± 1.64 µM | IC50 [3]: 6.12 ± 1.79 µM | IC50 [4]: 6.67 ± 1.77 µM

C[C@]12CC[C@@H](O)C[C@@H]1CC[C@@H]1[C@@H]2CC[C@]2(C)C(=NN=C3C(=O)Nc4ccc(F)cc43)CC[C@@H]12 [6b, 5-Fluoro-3-(((3R,5S,8R,9S,10S,13S,14S)-3-hydroxy-10,13-dimethyldodecahydro-1H-cyclopenta[a]phenanthren-17(2H,10H,14H)-ylidene)hydrazono)indolin-2-one]
IC50 (in vitro): 7.09 ± 1.57 µM | IC50 [2]: 42.2 ± 8.19 µM | IC50 [3]: 32.3 ± 4.21 µM | IC50 [4]: 9.51 ± 0.49 µM

C[C@]12CC[C@@H](O)C[C@@H]1CC[C@@H]1[C@@H]2CC[C@]2(C)C(=NN=C3C(=O)Nc4cc(F)ccc43)CC[C@@H]12 [6h, 6-Fluoro-3-(((3R,5S,8R,9S,10S,13S,14S)-3-hydroxy-10,13-dimethyldodecahydro-1H-cyclopenta[a]phenanthren-17(2H,10H,14H)-ylidene)hydrazono)indolin-2-one]
IC50 (in vitro): 12.8 ± 2.79 µM | IC50 [2]: 7.71 ± 2.13 µM | IC50 [3]: 5.41 ± 1.44 µM | IC50 [4]: 9.2 ± 1.68 µM

Cc1ccc2c(c1)C(=NN=C1CC[C@H]3[C@@H]4CCC5C[C@@H](O)CC[C@]5(C)[C@H]4CC[C@]13C)C(=O)N2 (stereo partly drawn) [3f, 3-(((3S,8R,9S,10S,13S,14S)-3-Hydroxy-10,13-dimethyldodecahydro-1H-cyclopenta[a]phenanthren-17(2H,10H,14H)-ylidene)hydrazono)-5-methylindolin-2-one]
IC50 (in vitro): 6.08 ± 0.54 µM | IC50 [2]: 6.01 ± 1.95 µM | IC50 [3]: 6.91 ± 0.58 µM | IC50 [4]: 7.06 ± 1.27 µM

C[C@]12CC[C@@H](O)C[C@@H]1CC[C@@H]1[C@@H]2CC[C@]2(C)C(=NN=C3C(=O)Nc4ccccc43)CC[C@@H]12 [6a, 3-(((3R,5S,8R,9S,10S,13S,14S)-3-Hydroxy-10,13-dimethyldodecahydro-1H-cyclopenta[a]phenanthren-17(2H,10H,14H)-ylidene)hydrazono)indolin-2-one]
IC50 (in vitro): 8.29 ± 2.24 µM | IC50 [2]: 21.7 ± 4.82 µM | IC50 [3]: 20.4 ± 6.69 µM | IC50 [4]: 13.8 ± 2.65 µM

C[C@]12CC[C@H](O)CC1CC[C@@H]1[C@@H]2CC[C@]2(C)C(=NN=C3C(=O)Nc4cc(F)ccc43)CC[C@@H]12 (stereo partly drawn) [3h, 6-Fluoro-3-(((3S,8R,9S,10S,13S,14S)-3-hydroxy-10,13-dimethyldodecahydro-1H-cyclopenta[a]phenanthren-17(2H,10H,14H)-ylidene)hydrazono)indolin-2-one]
IC50 (in vitro): 7.87 ± 2.04 µM | IC50 [2]: 6.85 ± 1.99 µM | IC50 [3]: 4.85 ± 0.84 µM | IC50 [4]: 7.22 ± 1.17 µM

C[C@]12CC[C@H](O)CC1CC[C@@H]1[C@@H]2CC[C@]2(C)C(=NN=C3C(=O)Nc4ccccc43)CC[C@@H]12 (stereo partly drawn) [3a, 3-(((3S,8R,9S,10S,13S,14S)-3-Hydroxy-10,13-dimethyldodecahydro-1H-cyclopenta[a]phenanthren-17(2H,10H,14H)-ylidene)hydrazono)indolin-2-one]
IC50 (in vitro): 5.65 ± 1.59 µM | IC50 [2]: 9.51 ± 1.34 µM | IC50 [3]: 6.72 ± 1.59 µM | IC50 [4]: 7.69 ± 2.54 µM

O=c1[nH]cc(F)c(=O)[nH]1 [5-FU, 5-Fluorouracil, reference compound]
IC50 (in vitro; HL-7702 normal liver cells): 86 ± 9.61 µM | IC50 [2]: 65.3 ± 7.3 µM | IC50 [3]: 63.2 ± 12.6 µM | IC50 [4]: 62 ± 8.38 µM

Cc1ccc2c(c1)C(=NN=C1CC[C@H]3[C@@H]4CC[C@H]5C[C@H](O)CC[C@]5(C)[C@H]4CC[C@]13C)C(=O)N2 [6f, 3-(((3R,5S,8R,9S,10S,13S,14S)-3-Hydroxy-10,13-dimethyldodecahydro-1H-cyclopenta[a]phenanthren-17(2H,10H,14H)-ylidene)hydrazono)-5-methylindolin-2-one]
IC50 (in vitro): 12.5 ± 4.36 µM | IC50 [2]: 8.25 ± 1.97 µM | IC50 [3]: 4.85 ± 1.07 µM | IC50 [4]: 9.12 ± 1.61 µM

C[C@]12CC[C@H](O)CC1CC[C@@H]1[C@@H]2CC[C@]2(C)C(=NN=C3C(=O)Nc4ccc([N+](=O)[O-])cc43)CC[C@@H]12 (stereo partly drawn) [3g, 3-(((3S,8R,9S,10S,13S,14S)-3-Hydroxy-10,13-dimethyldodecahydro-1H-cyclopenta[a]phenanthren-17(2H,10H,14H)-ylidene)hydrazono)-5-nitroindolin-2-one]
IC50 (in vitro): 33.4 ± 6.15 µM | IC50 [2]: 26.2 ± 4.59 µM | IC50 [3]: 19.4 ± 3.37 µM | IC50 [4]: 11.9 ± 2.45 µM

C[C@]12CC[C@H](O)CC1CC[C@@H]1[C@@H]2CC[C@]2(C)C(=NN=C3C(=O)Nc4ccc(I)cc43)CC[C@@H]12 (stereo partly drawn) [3e, 3-(((3S,8R,9S,10S,13S,14S)-3-Hydroxy-10,13-dimethyldodecahydro-1H-cyclopenta[a]phenanthren-17(2H,10H,14H)-ylidene)hydrazono)-5-iodoindolin-2-one]
IC50 (in vitro): 14 ± 2.83 µM | IC50 [2]: 23.8 ± 4.39 µM | IC50 [3]: 18.6 ± 4.79 µM | IC50 [4]: 21.7 ± 3.86 µM

C[C@]12CC[C@H](O)CC1CC[C@@H]1[C@@H]2CC[C@]2(C)C(=NN=C3C(=O)Nc4ccc(Br)cc43)CC[C@@H]12 (stereo partly drawn) [3d, 5-Bromo-3-(((3S,8R,9S,10S,13S,14S)-3-hydroxy-10,13-dimethyldodecahydro-1H-cyclopenta[a]phenanthren-17(2H,10H,14H)-ylidene)hydrazono)indolin-2-one]
IC50 (in vitro): 14.1 ± 3.79 µM | IC50 [2]: 11.6 ± 2.84 µM | IC50 [3]: 8.29 ± 2.41 µM | IC50 [4]: 8.43 ± 2.23 µM
